The numbers were not newly measured in patent US20240066097A1 (priority 2022, published 2024), which cites them from elsewhere.

A word on the IC50: it is the concentration at which inhibition is half-maximal. The term EC50 denotes the concentration giving half of the maximal effect.

Converted amounts (≈) assume the structure as drawn.

For data set [1], the system named is SARS coronaviruses.
Data set [2] has as its system SARS coronaviruses. This is another data set of the same source.
For data set [3] the following is noted: in vivo.

`Oc1cc(O)c2c(c1)O[C@@]1(c3ccc(O)c(O)c3)Oc3cc(O)c4c(c3[C@@H]2[C@H]1O)O[C@H](c1ccc(O)c(O)c1)[C@H](O)[C@H]4c1c(O)cc(O)c2c1O[C@H](c1ccc(O)c(O)c1)[C@H](O)C2` [Cinnamtannin B1]: in the data set with SARS coronaviruses [1], the “IC50” value was 28.4 µg/mL (≈ 32.8 µM). Turning to `O=C(O[C@@H]1Cc2c(O)cc(O)cc2O[C@@H]1c1cc(O)c(O)c(O)c1)c1cc(O)c(O)c(O)c1` [EGCG, epigallocatechin gallate], the “IC50” value in the data set on SARS coronaviruses [1] was 0.389 to 7.56 µg/mL. Regarding `COc1ccc([C@@H]2CC(=O)c3c(O)cc(O)cc3O2)cc1O` [Hesperetin], the concentration for half-maximal inhibition (IC50) in the data set on SARS coronaviruses [1] was 2.5 µg/mL (≈ 8.27 µM). `O=c1c(O)c(-c2ccc(O)cc2)oc2cc(O)cc(O)c12` [Kaempferol]: in the data set with SARS coronaviruses [1], the “IC50” value is 62.50 to 125.00 µg/mL. For the same molecule, the “EC50 level of the flavonol” value with SARS coronaviruses [2] was 10 µg/mL. Consider `O=c1cc(-c2ccc(O)c(O)c2)oc2cc(O)cc(O)c12` [Luteolin], for which, in the data set on SARS coronaviruses [1], the “IC50” value was 5.72 µg/mL (≈ 20 µM). Regarding `O=c1c(O)c(-c2cc(O)c(O)c(O)c2)oc2cc(O)cc(O)c12` [Myricetin], the “IC50” value in the data set with SARS coronaviruses [1] is 0.86 µg/mL (≈ 2.7 µM). `O=c1c(O)c(-c2ccc(O)c(O)c2)oc2cc(O)cc(O)c12` [Quercetin]: the “IC50” value in the data set on SARS coronaviruses [1] was 7.19 to 60 µg/mL. The “EC50 level of the flavonol” value with SARS coronaviruses [2] is 60 µg/mL. On to `[Ca+2]` [calcium], for which the dietary calcium absorption entry is reported as “up to −50%”.

For MBL, the half life in data set [3] is 72 to 170 h.

B1: Urtica dioica Agglutinin (UDA) (protein, UniProt P11218 24-372, looked up)
Lectin/endochitinase 1: QRCGSQGGGGTCPALWCCSIWGWCGDSEPYCGRTCENKCWSGERSDHRCGAAVGNPPCGQDRCCSVHGWCGGGNDYCSGSKCQYRCSSSVRGPRVALSGNSTANSIGNVVVTEPLFDQMFSHRKDCPSQGFYSYHSFLVAAESFPAFGTIGDVATRKREVAAFLAHISQATSGERSDVENPHAWGLCHINTTTVTENDFCTSSDWPCAAGKKYSPRGPIQLTHNFNYGLAGQAIGEDLIQNPDLVEKDPIISFKTALWFWMSQHDNKPSCHDIVLNANSAANRIPNKGVIGNIISRAFGHDDFAVRSSSIGFYKRYCDMLGVSYGHDLKYWFDNTPSSEFQRIQMRVAA
In the case of B1, in the data set with SARS-CoV-1, the EC50 is 1.3 µg/mL.
